{
  "source": "patent US8877940B2",
  "about": "“Antibiotic tolerance inhibitors” (Institut National de la Recherche Scientifique, priority 2011, dated 2014)",
  "key": {"[1]": {"test_system": "4-hydroxy-2-alkylquinoline (HAQ) levels, P. aeruginosa PA14 (MvfR regulon)", "type": "cell-based, Pseudomonas aeruginosa", "conditions": "very low concentrations, nanomolar range"}, "[2]": {"test_system": "pyocyanin, an MvfR-regulated virulence factor, P. aeruginosa PA14", "assay": "Quantification of pyocyanin (OD520nm of chloroform-extracted cultures)", "type": "cell-based, Pseudomonas aeruginosa", "conditions": "very low concentrations, nanomolar range", "description": "Pyocyanin levels were determined by measuring OD520nm of chloroform-extracted cultures.\nCompounds were tested at various concentrations for their impact on 4-hydroxy-2-alkylquinoline (HAQ) levels, including the MvfR ligands 4-hydroxy-2-heptylquinoline (HHQ) and 3,4-dihydroxy-2-heptylquinoline (PQS), as well as 2-n-heptyl-4-hydroxyquinoline-N-oxide (HQNO) and 2,4-dihydroxyquinoline (DHQ) (FIGS. 2A-2C). Levels of the phenazine, pyocyanin, an MvfR-regulated virulence factor, were also determined."}, "[3]": {"test_system": "Raw264.7 macrophage cells infected with PA14", "assay": "Viability of PA14-infected macrophage cells (MTT assay)", "type": "cell-based", "description": "Raw264.7 macrophage cells were cultured in Dulbecco's modified eagles medium (DMEM) containing 10% FCS, 2 mM glutamine and antibiotic-antimycotic solutions. Before infections cells were washed with PBS (without Mg2+ and Ca2+) and antibiotic-free medium was used for infections. The cells were infected with PA14 and PA14 isolates grown in the presence of compounds at an MOI of 100 for 3 h at 37° C. in a 5% CO2 atmosphere. During infections cells were incubated with 100 μM of compounds as well. After 3 hours of PA14 infection, the cells were washed and incubated with DMEM medium containing polymixin B and gentamicin in order to kill the extracellular bacteria. The viability of Raw264.7 was assessed using the MTT assay, which detects the early sign of eukaryotic cell death. The formazan crystals formed in viable, metabolically active cells were dissolved by the addition of 100 μl DMSO and optical density was measured at 570 nm in a microplate reader.\nIn order to determine whether or not the potent inhibitors are cytotoxic in eukaryotes, Raw 264.7 macrophage cells were exposed to selected compounds. No significant cytotoxicity was observed following compound exposure for 3 hours compared to the DMSO solvent control (FIG. 6A). The cytotoxicity of the macrophage cells was also determined when infected with PA14 bacterial cells alone or in the presence of the compounds."}, "P. aeruginosa PA14 [4]": {"test_system": "P. aeruginosa PA14", "assay": "Murine burn and infection model, M64 plus ciprofloxacin", "type": "in vivo, DC-1 mice", "conditions": "IV at 6, 20, 28, 40, 60, 68 and 80 h; M64 100 μM (4 mg/Kg), ciprofloxacin 0.4 mg/Kg; 7 days; un-injected controls 30%", "quoted_text": "A murine thermal injury model (Stevens et al., J Burn Care Rehabil. 1994; 15:232-235) was used as previously described to further assess bacterial pathogenicity in 6-wk-old DC-1 mice (Rahme et al., Science, 268(5219): p. 1899-902 (1995)) in the presence of combination of Ciprofloxacin (Bayer AG) and M64. Following mouse anesthetization, a full-thickness thermal burn injury involving 5%-8% of the body surface area was produced on the dermis of the shaved abdomen, and an inoculum of about 6-7×10^3 PA14 cells was injected intradermally into the burn eschar along with DMSO or 100 μM M64 compound. 100 μM (4 mg/Kg) of M64, 0.4 mg/Kg of ciprofloxacin (lower than the recommended dose of 10 mg/Kg), or a combination of M64+ciproflocaxin was also injected IV via tail vein at 6, 20, 28, 40, 60, 68 h and 80 h post-infection. Mice survival was subsequently assessed over the course of 7 days. Ten animals per treatment were used. In this set of experiments the concentration of ciprofloxacin used was lower than the therapeutic levels recommended to permit assessment of the possible synergistic effect between M64 and ciprofloxacin."}, "[5]": {"target": "MvfR binding to pqsA promoter (Pseudomonas aeruginosa, UniProt Q9I4X0)", "sequence (Q9I4X0 whole entry, looked up)": "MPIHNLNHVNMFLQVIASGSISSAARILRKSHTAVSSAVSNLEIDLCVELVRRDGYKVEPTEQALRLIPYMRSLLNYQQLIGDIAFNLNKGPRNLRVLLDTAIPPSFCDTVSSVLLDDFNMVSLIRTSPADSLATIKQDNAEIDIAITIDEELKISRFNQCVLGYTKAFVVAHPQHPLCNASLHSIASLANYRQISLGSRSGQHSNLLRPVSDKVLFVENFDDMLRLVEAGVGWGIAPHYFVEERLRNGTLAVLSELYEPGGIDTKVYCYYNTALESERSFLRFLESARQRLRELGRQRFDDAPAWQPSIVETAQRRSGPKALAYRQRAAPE"}, "P. aeruginosa PA14 [6]": {"test_system": "P. aeruginosa PA14", "assay": "Murine burn and infection model", "conditions": "~100 μM compound/mouse at infection and IV at 6 and 24 h; solvent control 38%", "protocol": "A thermal injury mouse model was used as described previously to assess bacterial pathogenicity in 6 week old BALBC mice (Charles River Laboratories). Following mouse anesthetization, a full-thickness thermal burn injury involving 5%-8% of the body surface area was produced on the dermis of the shaved abdomen. An inoculum of 4×10^4 PA14 cells, corresponding to a lethal dose of 50%, was injected intradermally into the burn eschar along with the compound or solvent, prepared as follows: 5 μl of a 50 mM stock in DMSO of compound was added to a solution of 5% CremophorEL/Ethanol (50/50% vol) in 50 μl saline. […] Each mouse also received IV injections of 50 μl of compound or solvent, as prepared above at 6 hours and 24 hours post-infection.\nA murine thermal injury and infection model was used to assess the impact of the compounds on P. aeruginosa pathogenesis in animals. Due to the hydrophobic nature of the compounds, 5% CremophorEL/Ethanol (50/50% vol) was used as an emulsifier to dissolve the compound in saline prior to injecting into animals. […] The bacteria and either 100 μM compound/mouse or DMSO control were co-injected at the time of infection. Compounds were also injected 6 hours and 24 hours post-infection."}},
  "note": "Entries after “also recorded” stand apart in the source; their conditions may differ.",
  "data": [
    {"compound": "O=C(CSc1nc2ccc([N+](=O)[O-])cc2[nH]1)Nc1ccc(Oc2ccccc2)cc1", "note": "[Compound M64, 2-((6-nitro-1H-benzo[d]imidazol-2-yl)thio)-N-(4-phenoxyphenyl)acetamide]", "values": [
      {"measurement": "reduction / inhibition of HAQs", "setting": "[1]", "result": "one of the most effective; also recorded: considerably inhibited"},
      {"measurement": "reduction / inhibition of pyocyanin", "setting": "[2]", "result": "one of the most effective; also recorded: considerably inhibited"},
      {"measurement": "viability at 100 µM", "setting": "[3]; Mus musculus, RAW264.7, 3 h, read-out: viable macrophage cells surviving post-infection", "result": 80, "unit": "%"},
      {"measurement": "reduction of PA14-induced cytotoxicity", "setting": "[3]; PA14 MOI 100, 3 h, 100 μM compound", "result": "effectively reduced cytotoxicity"},
      {"measurement": "survival rate", "setting": "P. aeruginosa PA14 [4]", "result": 75, "unit": "%"},
      {"measurement": "effect on MvfR binding to pqsA promoter (ChIP fold enrichment)", "setting": "[5]", "result": "affects MvfR binding to pqsA promoter by competing with the MvfR ligand PQS"},
      {"measurement": "overall surviving mice", "setting": "P. aeruginosa PA14 [6]", "result": 84, "unit": "%"}
    ]}
  ]
}
